Source: US6310091A, “Fungicidal saponin, CAY-1, and isolation thereof from Capsium species fruit” (The United States of America as represented by the …, priority 2000, dated 2001)
Where “and” joins values, the source holds several entries; their conditions need not be identical. Equal entries are not always repeated. Where two headings read alike, the source gives them in different places.

What was measured:
Aspergillus fumigatus = test: Fungicidal bioassay on nongerminated and germinating conidia of A. fumigatus; assay type: cell-based
Protocol: 1. Filamentous fungi. Filamentous fungi used in bioassays included Aspergillus flavus, A. fumigatus, A. niger, A. parasiticus and Fusarium oxysporum. The fungicidal properties of CAY-1 for the nongerminated and germinating conidia of these fungi were determined separately as described by De Lucca et al. [Med. Mycol., 36:291-298 (1998)] and De Lucca et al. [Antimicrob. Agents Chemother. 43:371-373 (1999)]. […] Two separate experiments were conducted in each medium (n=8 per medium).
A suspension of the aforementioned fungi were prepared separately in the appropriate medium. Conidia (10^4 conidia/ml) were used immediately for the nongerminated conidial assays while conidia (10^5 conidia/ml) were incubated for 7.5 hours at 30° C. to obtain germinating conidia. Serial dilutions of CAY-1 were prepared in the appropriate medium (totaling 225 μl) to which was added 25 μl of the conidial suspensions. The control consisted of 225 μl of medium and 25 μl of the conidial suspension. After mixing, the samples were incubated for 30 min (30° C.). Samples were then spread on potato dextrose agar plates which were incubated at 30° C. for 24 hours. Colonies were then enumerated.
Statistical analyses. ANOVA analyses on ranks for nonparametric data were performed for the bioassays described in this example.

Pneumocystis carinii = test: Effect on Pneumocystis carinii viability (ATP-driven bioluminescent assay); assay type: cell-based; conditions: for activity at 10 µM / activity at 2.5 µM / activity at 5 µM / activity at 20 µM / activity at 40 µM / activity at 80 µM: read-out: Percent of Control Mean; for activity at 2.5 µM: 3.2 μg/ml; for activity at 5 µM: 6.3 μg/ml; for activity at 20 µM: 25 μg/ml; for activity at 40 µM: 50 μg/ml; for activity at 80 µM: 100 μg/ml
Protocol: 3. Pneumocystis carinii. The effect of CAY-1 on Pneumocystis carinii was determined as described previously [Cushion et al., Antimicrob. Agents Chemother., 1997, 41:379-384, herein incorporated by reference]. This assay is based on an ATP-driven bioluminescent reaction and was used to determine the concentration of CAY-1 which decreased the P. carinii ATP pools.

[1] = Pneumocystis carinii, 24 h, Day 1
[2] = Pneumocystis carinii, 48 h, Day 2
[3] = Pneumocystis carinii, 72 h, Day 3

CC1CCC2(OC1)OC1CC3C4CCC5CC(OC6OC(CO)C(OC7OC(CO)C(O)C(OC8OC(CO)C(O)C(OC9OC(CO)C(O)C(O)C9O)C8O)C7OC7OC(CO)C(O)C(O)C7O)C(O)C6O)C(O)CC5(C)C4CCC3(C)C1C2C (stereo not shown) [CAY-1]
Mean No. of Colonies (Aspergillus fumigatus; germinating, RPMI-1640, 1.0 μM): 12.4
Mean No. of Colonies (Aspergillus fumigatus; germinating, RPMI-1640, 1.5 μM): 13.8
Mean No. of Colonies (Aspergillus fumigatus; germinating, RPMI-1640, 2.0 μM): 13.9
Mean No. of Colonies (Aspergillus fumigatus; germinating, RPMI-1640, 2.5 μM): 13.5
Mean No. of Colonies (Aspergillus fumigatus; germinating, RPMI-1640, 3.0 μM): 4.8
Mean No. of Colonies (Aspergillus fumigatus; germinating, RPMI-1640, 4.0 μM): 0.6
viability of nongerminated conidia (Aspergillus fumigatus; nongerminated conidia, either test medium): not affected
Mean No. of Colonies (Aspergillus fumigatus; nongerminated, 1% PDB, 2.0 μM): 57.4
Mean No. of Colonies (Aspergillus fumigatus; nongerminated, 1% PDB, 3.0 μM): 49.1
Mean No. of Colonies (Aspergillus fumigatus; nongerminated, 1% PDB, 4.0 μM): 54.1
Mean No. of Colonies (Aspergillus fumigatus; nongerminated, 1% PDB, 5.0 μM): 53.0
Mean No. of Colonies (Aspergillus fumigatus; nongerminated, 1% PDB, 7.5 μM): 59.0
Mean No. of Colonies (Aspergillus fumigatus; nongerminated, 1% PDB, 10.0 μM): 61.8
Mean No. of Colonies (Aspergillus fumigatus; nongerminated, RPMI-1640, 0.5 μM): 27.0
Mean No. of Colonies (Aspergillus fumigatus; nongerminated, RPMI-1640, 1.0 μM): 30.6
Mean No. of Colonies (Aspergillus fumigatus; nongerminated, RPMI-1640, 1.5 μM): 22.5
Mean No. of Colonies (Aspergillus fumigatus; nongerminated, RPMI-1640, 2.0 μM): 25.1
Mean No. of Colonies (Aspergillus fumigatus; nongerminated, RPMI-1640, 2.5 μM): 22.3
Mean No. of Colonies (Aspergillus fumigatus; nongerminated, RPMI-1640, 3.0 μM): 23.8
effectiveness compared with pentamidine (Pneumocystis carinii; 25 and 50 μg/ml (20.2 and 40.3 μM) vs pentamidine 10 μg/ml, 29 μM): as, or more effective, than pentamidine
IC50 (Pneumocystis carinii; Pneumocystis carinii): 11.8 µg/mL and 9.5 µM
activity at 10 µM (Pneumocystis carinii; Pneumocystis carinii, 24 h): 43.1%
activity at 2.5 µM (Pneumocystis carinii; [1]): 94.7%
activity at 5 µM (Pneumocystis carinii; [1]): 70.1%
activity at 20 µM (Pneumocystis carinii; [1]): 18%
activity at 40 µM (Pneumocystis carinii; [1]): 10%
activity at 80 µM (Pneumocystis carinii; [1]): 3.1%
killing at 10 µM (Pneumocystis carinii; Pneumocystis carinii, 48 h, read-out: P. carinii killed): ≥ 34.6%
activity at 10 µM (Pneumocystis carinii; Pneumocystis carinii, 48 h): 11.8%
activity at 2.5 µM (Pneumocystis carinii; [2]): 98.2%
activity at 5 µM (Pneumocystis carinii; [2]): 56.9%
activity at 20 µM (Pneumocystis carinii; [2]): 5.5%
activity at 40 µM (Pneumocystis carinii; [2]): 2.2%
activity at 80 µM (Pneumocystis carinii; [2]): 0.9%
killing at 40.3 µM (Pneumocystis carinii; Pneumocystis carinii, 72 h, read-out: P. carinii cells killed): 93%
activity at 10 µM (Pneumocystis carinii; Pneumocystis carinii, 72 h): 12.1%
activity at 2.5 µM (Pneumocystis carinii; [3]): 99.8%
activity at 5 µM (Pneumocystis carinii; [3]): 46.6%
activity at 20 µM (Pneumocystis carinii; [3]): 3.3%
activity at 40 µM (Pneumocystis carinii; [3]): 1%
activity at 80 µM (Pneumocystis carinii; [3]): 0.3%
minimal effective concentration (Pneumocystis carinii; Pneumocystis carinii, read-out: concentration at which lethality begins): 5 µM
minimal effective concentration (Pneumocystis carinii; Pneumocystis carinii, read-out: lowest effective level in vitro): ~5 µM
